# Measurements as given in patent US20130096160A1, “ARYLTHIAZOLYL PIPERIDINES AND RELATED COMPOUNDS AS MODULATORS OF SURVIVAL MOTOR NEURON (SMN) PROTEIN PRODUCTION” (Secretary, Department of Health and Human Services, priority 2010, published 2013).
# Assays:
# SMN2-luciferase reporter = SMN2-luciferase reporter qHTS assay; format: cell-based, human; conditions: SMN2-luc reporter, FIG. 1
# Procedure, shortened: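 SMN2 exon-7 splicing firefly-luciferase reporter cell line, ~2000 cells/well in phenol-red-free DMEM with 10% serum, allowed to adhere 10–12 h, then exposed to compounds for 2 days at 37 C, 5% CO2. Seven-point five-fold dilution series (e.g. 50 μM to 3.2 nM), OneGlo luminescence read, curves fitted to Hill equation.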
# SMN1-luciferase reporter = SMN1-luciferase reporter control cell line; format: cell-based, human; conditions: SMN1-luc reporter, FIG. 1
# Text: A cell-based quantitative high throughput screening (qHTS) assay is used to identify compounds able to increase SMN production. The assay uses a SMN2-luciferase reporter to determine if exon 7 of the SMN gene is expressed, which correlates with increased full-length SMN production from the SMN2 gene. As controls, a homologue SMN1-luciferase reporter cell line looks for variations in expression of the SMN1 gene and a cell line with just the luciferase reporter looks at the capacity of the compounds to inhibit luciferase. In addition, increments in SMN production by lead compounds were confirmed by Western-Blot analysis using SMA patient fibroblasts.
# The SMN reporters used herein are modified from those previously described (M. L. Zhang, C. L. Lorson, E. J. Androphy and J. Zhou, An in vivo reporter system for measuring increased inclusion of exon 7 in SMN2 mRNA: potential therapy of SMA, Gene Ther 8 (2001), pp. 1532-1538.)
# The sequence of the SMN1 reporter vector used herein is given in SEQ ID NO.:1, while that of the SMN2 reporter vector is given in SEQ ID NO.:2. […]
compound,measurement,setting,value
NC(=O)C1CCN(c2nc(-c3ccc(Br)cc3)cs2)CC1 [MLS000698854],expression of SMN2 / levels of the full length SMN2 gene (in words),SMN2-luciferase reporter,increases the expression of SMN2
same,expression of SMN1 (in words),SMN1-luciferase reporter,does not affect the expression of SMN1
